The values below are quoted from earlier work in US8551962B2, “High dosage doramectin formulation” (Zoetis LLC, priority 2009, dated 2013).

For this series the following is noted: beef cattle; single dose of 200 μg/Kg of body weight.

Turning to `CO[C@H]1C[C@H](O[C@H]2[C@H](C)O[C@@H](O[C@@H]3/C(C)=C/C[C@@H]4C[C@@H](C[C@]5(C=C[C@H](C)[C@@H](C6CCCCC6)O5)O4)OC(=O)[C@@H]4C=C(C)[C@@H](O)[C@H]5OC/C(=C\C=C\[C@@H]3C)[C@]54O)C[C@@H]2OC)O[C@@H](C)[C@@H]1O` [doramectin], the withhold time is reported as 35 days.
